Target: T1, Topoisomerase I (Homo sapiens, UniProt P11387)
T1 construct: gene TOP1
T1 sequence (P11387 2-765): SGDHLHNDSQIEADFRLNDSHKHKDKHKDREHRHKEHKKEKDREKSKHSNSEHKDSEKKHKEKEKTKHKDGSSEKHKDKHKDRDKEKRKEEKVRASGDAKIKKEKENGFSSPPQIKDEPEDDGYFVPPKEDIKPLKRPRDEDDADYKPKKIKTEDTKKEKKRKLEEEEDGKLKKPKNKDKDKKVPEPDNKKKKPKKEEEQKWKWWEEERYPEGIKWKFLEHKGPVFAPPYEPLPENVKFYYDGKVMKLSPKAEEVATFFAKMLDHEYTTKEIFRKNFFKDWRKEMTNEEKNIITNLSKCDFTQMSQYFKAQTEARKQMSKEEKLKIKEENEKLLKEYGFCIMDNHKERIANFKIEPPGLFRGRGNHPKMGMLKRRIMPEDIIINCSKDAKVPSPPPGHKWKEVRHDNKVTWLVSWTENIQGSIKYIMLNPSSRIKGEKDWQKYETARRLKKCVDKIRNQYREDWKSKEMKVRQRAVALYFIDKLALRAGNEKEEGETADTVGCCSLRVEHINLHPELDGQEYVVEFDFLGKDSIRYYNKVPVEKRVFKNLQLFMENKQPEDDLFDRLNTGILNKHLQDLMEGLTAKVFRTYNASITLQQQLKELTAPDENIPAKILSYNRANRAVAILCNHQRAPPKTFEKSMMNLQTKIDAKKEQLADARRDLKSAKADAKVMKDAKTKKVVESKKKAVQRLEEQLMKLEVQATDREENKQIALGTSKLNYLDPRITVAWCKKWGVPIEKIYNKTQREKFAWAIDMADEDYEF
Assay: Topo I DNA relaxation assay (commercial kit), agarose gel electrophoresis
Format: biochemical

IC50: 37.5 µM
Structure (SMILES): O=C(/C=C/c1ccc(Cl)cc1)c1ccc(NC(=O)N2CCN(c3cc4c(cc3F)c(=O)c(C(=O)O)cn4C3CC3)CC2)cc1 [compound 2, 7-(4-((4-(3-(4-Chlorophenyl)acryloyl)phenyl)carbamoyl)piperazin-1-yl)-1-cyclopropyl-6-fluoro-4-oxo-1,4-dihydroquinoline-3-carboxylic acid]
